Experimental data from patent US20100119595A1, “Monounsaturated fatty acids and perhydrocyclopentanophenanthrene nucleus combination molecules, and their precursors, and the use of all of these as weight-loss agents” (priority 2001, published 2010).
Entries after “also recorded” stand apart in the source; their conditions may differ.

Experiments:
[1] = test system: MCF-7 human breast cancer cell line; experiment: MCF-7 human breast cancer cell line test; assay type: cell-based
Text: The practical use of any compound given to humans for the treatment of obesity require, of course, that the compound not only be effective, but able to pass the FDA requirements and be approved as a drug suitable for humans. […] One test used to determine reactivity with human breast cancer cells is the “MCF-7 human breast cancer cell line test”. The lower the concentration of drug required to produce agonist activity, the more potential there is for problems with cancer causing &/or promotion in humans A comfortable level in the pharmaceutical industry would be a reactivity in the micromolar range. In the case of oleyl estrone, agonist activity begins at […]; with estrone eicosenoate, agonist activity begins at a ten times greater concentration of 1.0 nanomolar. This low concentration of agonist activity mitigates the possibility that these compounds would gain FDA approval for either drug.

[2] = Stability of the compound
human T47D breast cells = conditions: ER-CALUX; cited from earlier work
[3] = Human study of 2 hydroxy estrone eicosenoate (Example 8); assay type: in vivo; conditions: humans, oral capsule, 0.75 or 0.375 micromoles/kg
Experimental: In this random, double-blind, placebo controlled study, subjects are selected to one of three groups and take a capsule orally every morning containing one of the following: a) sunflower oil (placebo), b) 2 hydroxy estrone eicosenoate dissolved in sunflower oil at a dose of 0.75 micromoles/kg, or c) 2 hydroxy estrone eicosenoate dissolved in sunflower oil at a dose of 0.375 micromoles/kg. […]
Different tests are performed at least five different times during each study, namely at the screening of potential participants, at the beginning of the study, weekly during the trials, at the end of the first 4 week period and at the end of the second 4 week treatment period. • 1) SCREENING: Subjects are screened to exclude hypothyroidism, pregnancy, and heart disease. […] Subjects selected to participate in the studies have the following initial measurements: WEIGHT, WAIST to HIP RATIO, HEIGHT, BMI (calculated), BODY FAT % & TOTAL BODY FAT (via bioelectrical impedance method). […]
Ad libitum diets are followed, and food intake and appetite are assessed daily by the patient with an appropriate questionnaire and booklet. […]

[4] = Rat study of 2 hydroxyestrone eicosenoate (Example 9); assay type: in vivo, Osborne Mendle rats; conditions: rats, oral gavage 21 days, 10, 5, 3.33 or 2.5 micromoles/kg
Experimental: Osborne Mendle rats are selected as the study subjects due to their propensity to gain fat to when fed a high fat diet. An initial measurement of body weight is performed on each rat.
The rats are placed individually in appropriate cages and allowed an ad libitum diet of standard rat chow and water for a 10-day period. During this 10-day period the rats are gavaged daily with 0.1 cc volume of sunflower oil to allow them to become comfortable with being handled and receiving the gavage tube (it takes about 10 days for this acclimation to occur, and is important so that the animals are not stressed by the gavage).
Daily measurements include the following: • 1. Weight • 2. Weight of food consumed • 3. Spillage • 4. Water consumed, both volume and weight
The rats remain confined and are denied out-of-cage activity or exercise for the duration of the experiment other than normal daily activity confined to the cage. This initial 10 day period establishes a pattern and average of weight gain, to acclimate the animals to the gavage procedure, and determine the average food and water consumption for each rat. […]
At the end of the study, rats are anesthetized then sacrificed via guillotine. […] Weight of the uterus is determined. […]

[5] = cited from earlier work
[6] = Rabbit 10-day oral study: body weight and food consumed (Example 1)
Experimental: During the first 3 weeks, rabbits were only weighed and allowed to eat. On the fourth week, all rabbits were given 0.05 cc dose of peanut oil.
Five New Zealand white rabbits were obtained and caged in their natural environment (outside) and fed a cafeteria, ad libitum diet of rabbit chow. […] The appropriate weights of OE or EE were diluted in peanut oil to provide concentrations as follows: 1) OE, 2 mg/0.05 cc; 2) EE, 1 mg/0.05 cc; 3) 0.33 mg/0.05 cc; 4) EE, 0.1mg/0.05 cc, 5) EE, 0.03 mg/0.05 cc
For the initial three weeks, the rabbits were given no medicine or oil. Body weight and food consumed were measured daily; establishing a daily average for food consumed and weight change.
Rabbits received the assigned dose for 10 consecutive days. Rabbit weight (kg) and food eaten (grams) were determined daily.

## CCCCCCCC/C=C\CCCCCCCCCC(=O)Oc1cc2c(cc1Br)[C@H]1CC[C@]3(C)C(=O)CC[C@H]3[C@@H]1CC2 (relative stereo) [bromo compound, 2-bromoestrone ester of cis-11-eicosenoic acid]
[1]; compared with oleoyl estrone
  reactivity in MCF-7 test: only as reactive as oleoyl estrone
[2]
  stability: stable

## C[C@]12CC[C@@H]3c4cc(O)c(O)cc4CC[C@H]3[C@@H]1CCC2=O [2 hydroxy estrone]
Human T47D breast cells
  times less active than estrone: 10,000 times

## CCCCCCCC/C=C\CCCCCCCCCC(=O)Oc1cc2c(cc1O)[C@H]1CC[C@]3(C)C(=O)CC[C@H]3[C@@H]1CC2 [2-hydroxy estrone eicosenoate]
[3]
  appetite: reduces appetite
  weight loss, loss of body fat, and/or decrease of body fat%: produces weight loss
[4]
  body weight &/or body fat: reduction of body weight &/or body fat
  food consumption: reduction in food consumption

## CCCCCCCC/C=C\CCCCCCCC(=O)Oc1ccc2c(c1)CC[C@@H]1[C@@H]2CC[C@]2(C)C(=O)CC[C@@H]12 [OE, Oleoyl-estrone, reference compound]
[5]; Zucker lean rats, one study
  lipid reserves: lost virtually all their lipid reserves
[5]; variety of rats, i.v. or oral, published articles
  weight loss: rapid and sustained weight loss
[1]; MCF-7 human breast cancer cells
  concentration at which agonist activity begins: 0.9 nM
[6]; OE 2 mg/d oral in peanut oil, 10 days, one rabbit, initial wt 3.70 kg
  FINAL WT.: 3.60 kg
[6]; OE 2 mg/d oral, 10 days, pre-Rx 10 day avg. +0.121, control +0.14
  WT. Δ w/ Rx 10 days: −0.10 kg
[6]; OE 2 mg/d oral, 10 days, pre-Rx avg 160.55
  FOOD/DAY AVG. w/ Rx: 93.8 grams
[6]; OE 2 mg/d oral, after one week of therapy, rabbit
  side effect, behaviour: very agitated, mean and aggressive; also recorded: irritability and aggressive behavior

## CCCCCCCCCCCCCCCCCC(=O)Oc1ccc2c(c1)CCC1C2CCC2(C)C(=O)CCC12 (stereo not drawn) [stearoyl estrone]
[5]; Life Sci, 1998: 62 (15): 1349-59
  efficacy compared with oleoyl estrone: less effective
